Assay results published in patent publication US10946036B2, “Use of myostatin inhibitors and combination therapies” (Scholar Rock, Inc., priority 2016, dated 2021).
Entries after “also recorded” stand apart in the source; their conditions may differ. Like-named read-outs stand apart in the source and are kept apart here. One block for each molecule: values may come before it.

Key:
mouse proMyostatin = molecular target: T1, mouse proMyostatin (Mus musculus, UniProt O08689); experiment: proMyostatin activation reporter assay, mouse proMyostatin; type: cell-based
T1 construct: made in house; host or cells: mammalian expression system
Description: (§1) Antibody SRK-015P (“P” for parental) was optimized to generate SRK-015, a fully human monoclonal antibody. SRK-015 differs from its parental clone by five residues in the variable domain outside the complementarity determining region. […] Both SRK-015 and SRK-015P had similar functional activity towards human and mouse proMyostatin in the reporter assay such that EC50 values for the two antibodies in proMyostatin activation assay using human and mouse proMyostatin, are similar. […] The ability of SRK-015 to bind the myostatin prodomain and to inhibit tolloid cleavage has been shown. Purified recombinant latent myostatin was incubated with TLL-2 tolloid protease in the presence of increasing concentrations of SRK-015. Samples were separated by reducing SDS-PAGE and probed by Western blot with an antibody that recognizes the myostatin prodomain.

mature BMP10 = molecular target: T2, mature BMP10 (Homo sapiens, UniProt O95393); experiment: Binding specificity: mature BMP10
T2 sequence (O95393 317-424): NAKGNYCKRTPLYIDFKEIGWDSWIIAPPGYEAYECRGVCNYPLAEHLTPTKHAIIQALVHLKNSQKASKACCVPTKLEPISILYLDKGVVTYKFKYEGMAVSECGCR

[1] = Pharmacokinetics in cynomolgus monkeys, ELISA; type: in vivo; details: for T1/2: post-dosing period
Experimental: (§2) SRK-015 PK properties were also determined in cynomolgus monkeys. Two- to three-year old male animals (average age 34 months) were administered weekly doses of 3 mg/kg or 30 mg/kg SRK-015 for 8 weeks. Following the last dose, animals were followed for an additional five weeks in the absence of drug administration. Samples from this post-dosing period were used to calculate PK parameters. […] Antibody levels were assessed by ELISA.

scid mice = experiment: Lean mass by qNMR in scid mice; type: in vivo, mouse; details: single 5 mg/kg dose
Experimental: (§3) Male scid mice were administered a single 5 mg/kg IV dose of SRK-015. Separate cohorts of mice were sacrificed 4 hours, 2, 8, 15, 22, 29, and 56 days post dose, and serum and TA muscles collected for PK and target engagement assays. N=4 or 8 per group. SRK-015 levels were determined from serum samples taken at the indicated times after dosing. Analysis was performed using an anti-human IgG ELISA. The half-life of SRK-015 in scid mice at 5 mg/kg was ˜20.3 days.
(§4) Lean mass was measured with qNMR at the indicated timepoints after dosing. […] Target engagement was assessed by analyzing levels of latent myostatin in serum and muscle using western blot. Binding to SRK-015 results in accumulation of latent myostatin as the bound target assumes the half-life of the antibody and accumulates in circulation and in the target tissues. […] Samples from three mice from each cohort were analyzed.

mature TGFβ1 = mature TGFβ1 (Homo sapiens, UniProt P01137); experiment: Binding specificity: mature TGFβ1
mature GDF-8 = mature GDF-8 (Homo sapiens, UniProt O14793); experiment: Binding specificity: mature GDF-8
Experimental: In some embodiments, suitable dosage of SRK-015 for administration in human patients for the treatment of SMA ranges between 1 and 30 mg/kg, e.g., 1-5 mg/kg, 3-5 mg/kg, 3-10 mg/kg, 5-10 mg/kg, 5-15 mg/kg, 5-20 mg/kg, 10-20 mg/kg, etc. In some embodiments, the patient is administered SRK-015 once a week, once every two weeks, once every three weeks, once a month, once every six weeks, etc.

latent myostatin [2] = molecular target: T3, latent myostatin (Mus musculus, UniProt O08689); experiment: Target engagement in serum and muscle of scid mice, western blot; type: in vivo; details: single 5 mg/kg dose
T3 construct: from tissue; host or cells: mouse serum and tibialis anterior muscle
Experimental: as §3, §4

mature BMP9 = molecular target: T4, mature BMP9 (Homo sapiens, UniProt Q9UK05); experiment: Binding specificity: mature BMP9
T4 sequence (Q9UK05 320-429): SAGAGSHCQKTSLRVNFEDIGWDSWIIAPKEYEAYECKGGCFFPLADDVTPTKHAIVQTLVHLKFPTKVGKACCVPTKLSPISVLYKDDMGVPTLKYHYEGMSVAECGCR

GDF11 = experiment: Binding specificity: GDF11; details: any form of GDF11
proGDF11 = proGDF11 (Homo sapiens, UniProt O95390); experiment: Protease activity reporter assay using proGDF11 as substrate; type: cell-based
healthy male mice = experiment: Muscle mass in healthy mice after single dose; type: in vivo, mouse; details: single 20 mg/kg dose, after 15 days
Description: (§5) FIG. 2A and FIG. 2B provide a summary of dexamethasone-induced atrophy in mice: FIG. 2A illustrates the experimental model of single-dose SRK-015 treatment in healthy and atrophy-induced mice; FIG. 2B provides changes in gastrocnemius muscle weights measured at the indicated time points.
(§6) SRK-015 increased muscle mass in healthy animals and reduced muscle loss in a dexamethasone-induced model of atrophy. […] SRK-015 was also effective in preventing muscle loss upon dexamethasone treatment.

proMyostatin [3] = molecular target: T5, proMyostatin (Homo sapiens, UniProt O14793); experiment: proMyostatin activation assay, Smad2/3 luciferase reporter cell line; type: cell-based; details: proMyostatin incubated with furin and mTTL-2 proteases
T5 construct: made in house; host or cells: mammalian expression system
Description: as §1

mature myostatin = mature myostatin (Homo sapiens, UniProt O14793); experiment: Mature myostatin signaling in Smad2/3 reporter assay; type: cell-based
[4] = Pharmacokinetics in scid mice, anti-human IgG ELISA; type: in vivo, mouse; details: single 5 mg/kg IV dose, serum
Experimental: as §3

[5] = system: dexamethasone treated mice; experiment: Dexamethasone-induced muscle atrophy in mice; type: in vivo, mouse
Description: as §5, §6

cynomolgus monkeys = experiment: Muscle weights in cynomolgus monkeys; type: in vivo
Experimental: as §2
(§7) At study termination animals were sacrificed five weeks after the last dose as described in above and muscle weights were determined. Gastrocnemius and Biceps brachii muscles (FIG. 10A and FIG. 10B, respectively) show increased mass following SRK-015 treatment. Gastrocnemius weights increased 21% in the 3 mg/kg groups, and 23% in the 30 mg/kg groups relative to vehicle control. * indicates statistically significant difference from vehicle by one-way ANOVA; P<0.007. Biceps brachii weights increased 18% in the 3 mg/kg groups, and 25% in the 30 mg/kg group relative to vehicle control. * indicates statistically significant difference from vehicle by one-way ANOVA; P<0.02. […] Serum samples were collected at the indicated study day and analyzed by semi-quantitative western blot analysis. Accumulation of latent myostatin, indicative of SRK-015 binding, is evident by day 8. Target continues to accumulate as additional doses are administered. Latent myostatin levels were quantified as described in Example 7 above. The effects of SRK-015 on muscle weight indicate that even at lower end of dosage (e.g., 3 mg/kg/week) SRK-015 is at or near the level of target engagement necessary for maximal efficacy.

Activin A = experiment: Binding specificity: Activin A; details: any form
latent myostatin [6] = molecular target: T6, latent myostatin (Homo sapiens, UniProt O14793); experiment: TLL-2 tolloid cleavage of latent myostatin, Western blot; type: biochemical; details: increasing antibody concentrations
T6 construct: Following cleavage, the growth factor and prodomain remain associated, forming a latent complex (latent myostatin)
Description: as §1

proMyostatin [7] = molecular target: T5, proMyostatin; experiment: proMyostatin activation reporter assay, human proMyostatin; type: cell-based
Description: as §1

latent myostatin [8] = molecular target: T7, latent myostatin (Macaca fascicularis, UniProt Q95J86); experiment: Target engagement in cynomolgus serum, semi-quantitative western blot; type: in vivo, cynomolgus monkeys; details: 3 mg/kg or 30 mg/kg weekly
T7 construct: from tissue; host or cells: cynomolgus monkey serum
Experimental: as §7

murine proMyostatin = experiment: Binding to murine proMyostatin; design: species or system mouse
[9] = system: preclinical models of SMA (mice); details: cited from earlier work; for blood brain barrier (BBB) crossing: mouse, in vivo; for SMN protein levels compared to vehicle: oral dosing, brain and muscle
SMA patients = details: human, in vivo; cited from earlier work
Type II SMA patients = details: cited from earlier work; for HFMSE score increase relative to placebo group: mean
[10] = system: infantile-onset SMA (type I) patients; details: cited from earlier work
[11] = in vivo; cited from earlier work
Δ7 mice = details: 0.1 mg/kg/day from birth; cited from earlier work
[12] = 3 mg/kg weekly x8, five weeks after last dose
[13] = 30 mg/kg weekly x8, five weeks after last dose

Sequence of proGDF11 (O95390 299-407): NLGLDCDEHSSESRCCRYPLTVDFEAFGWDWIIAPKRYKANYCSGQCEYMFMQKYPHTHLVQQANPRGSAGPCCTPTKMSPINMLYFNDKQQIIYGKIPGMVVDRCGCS
Sequence of mature TGFβ1 (P01137 279-390 limits assumed): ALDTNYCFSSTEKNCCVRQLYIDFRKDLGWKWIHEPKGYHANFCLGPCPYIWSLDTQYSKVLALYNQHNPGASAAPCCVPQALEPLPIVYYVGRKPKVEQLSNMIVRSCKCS

- EC50 in proMyostatin activation assay, the two antibodies compared (mouse proMyostatin): similar
- binding to mature BMP10 (mature BMP10): no detectable binding
- binding to mature TGFβ1 (mature TGFβ1): no detectable binding
- binding to mature GDF-8 (mature GDF-8): does not bind
- onset of significant target engagement in circulation (latent myostatin [2]): within four hours
- onset of significant target engagement in muscle (latent myostatin [2]): within two days
- target engagement at 56 days post-dosing (latent myostatin [2]): no longer observed
- target engagement sustained out to (latent myostatin [2]): 29 days post dose
- binding to mature BMP9 (mature BMP9): no detectable binding
- release of mature myostatin, measured by luciferase expression (proMyostatin [3]): inhibited release of mature myostatin
- inhibition of mature myostatin signaling (mature myostatin): did not inhibit
- binding to Activin A (Activin A): no detectable binding
- EC50 in proMyostatin activation assay, the two antibodies compared (proMyostatin [7]): similar
- accumulation of latent myostatin evident by (latent myostatin [8]; serum): ≤ 8 days
- Kd (murine proMyostatin): 8.35 nM
Molecule: SRK-015: fully human monoclonal antibody optimized from SRK-015P; binds pro/latent myostatin and inhibits release of mature growth factor
- AUClast ([1]; 3 mg/kg weekly for 8 weeks): 60799 hr▪ng/ml
- Cmax ([1]; 3 mg/kg weekly for 8 weeks): 243 ng/mL
- Tmax ([1]; 3 mg/kg weekly for 8 weeks): 51 h
- T1/2 ([1]; 3 mg/kg weekly for 8 weeks): 12.4 h
- AUClast ([1]; 30 mg/kg weekly for 8 weeks): 1070638 hr▪ng/ml
- Cmax ([1]; 30 mg/kg weekly for 8 weeks): 2648 ng/mL
- Tmax ([1]; 30 mg/kg weekly for 8 weeks): 15 h
- T1/2 ([1]; 30 mg/kg weekly for 8 weeks): 22.2 h
- lean mass relative to IgG control (scid mice): significant increase in lean mass
- binding to GDF11 (GDF11): does not bind; also recorded: no detectable binding
- effect in protease activity assay with proGDF11 (proGDF11): no effect
- increase in muscle mass versus IgG control (healthy male mice): 17.5%
- half-life [4]: ~487 h
- muscle atrophy under dexamethasone ([5]; single 20 mg/kg dose, throughout the study): prevented muscle atrophy
- Biceps brachii weight increase relative to vehicle control (cynomolgus monkeys; [12]): 18%
- Gastrocnemius weight increase relative to vehicle control (cynomolgus monkeys; [12]): 21%
- Biceps brachii weight increase relative to vehicle control (cynomolgus monkeys; [13]): 25%
- Gastrocnemius weight increase relative to vehicle control (cynomolgus monkeys; [13]): 23%
- tolloid-mediated cleavage of latent myostatin (latent myostatin [6]): inhibited the second (tolloid-mediated) proteolysis step
- target engagement in serum (latent myostatin [8]): engaged latent myostatin at both doses tested

Molecule: CCc1nc(C)cn2nc(-c3cc(=O)n4cc(C5CCN(C)CC5)cc(C)c4n3)cc12 [RG7800]
- blood brain barrier (BBB) crossing [9]: efficiently crossed the blood brain barrier
- SMN protein levels compared to vehicle [9]: increased SMN protein levels in both brain and muscle tissues

Molecule: nusinersen
- compound muscle action potential (CMAP) amplitudes (SMA patients): improvements
- patients not attaining at least 3-point HFMSE improvement (Type II SMA patients; in vivo): 43%
- HFMSE score increase relative to placebo group (Type II SMA patients): 5.9 points
- HFMSE score increase relative to placebo group (Type II SMA patients; listed as Nusinersen): less than 6 points
- treated patients able to sit unaided ([10]; Type I patients): five of 81
- patients reported to be non-responders ([10]; infantile-onset SMA (type I)): 60%
- treated patients with improvements in motor milestones (Hammersmith Infant Neurological Examination) ([10]; interim analysis, 0% placebo): 41%

Molecule: C[C@@H]1C[C@H]2[C@@H]3CCC4=CC(=O)C=C[C@]4(C)[C@@]3(F)[C@@H](O)C[C@]2(C)[C@@]1(O)C(=O)CO [dexamethasone, reference compound]
- loss of muscle mass, IgG vehicle versus IgG Dex ([5]; chronic administration, by day 8): 16%

Molecule: CC1(C)CC(Oc2ccc(-c3ccc(-c4cn[nH]c4)cc3O)nn2)CC(C)(C)N1 [LMI070]
- preclinical toxicity findings [11]: injuries to the peripheral nerves and spinal cord, testes, and blood vessels in the kidney

Molecule: CCN1CCC(c2cc(C)c3nc(-c4cc5c(C)nc(C)cn5n4)cc(=O)n3c2)CC1 [SMN-C3]
- blood brain barrier (BBB) crossing [9]: efficiently crossed the blood brain barrier
- SMN protein levels compared to vehicle [9]: increased SMN protein levels in both brain and muscle tissues

Molecule: Cc1cn2cc(-c3cc4ccc(N5CCN(C)CC5)cc4c(=O)o3)nc2c(C)n1 [SMN-C1]
- treated mice surviving to post-natal day (PND) 52 (Δ7 mice): 70%

Molecule: CCN1CCN(c2ccc3cc(-c4cn5cc(C)nc(C)c5n4)c(=O)oc3c2)C[C@@H]1C [SMN-C2]
- blood brain barrier (BBB) crossing [9]: efficiently crossed the blood brain barrier
- SMN protein levels compared to vehicle [9]: increased SMN protein levels in both brain and muscle tissues
